Results on four compounds are retold here after patent US6083920A, “Compositions for modulating intracellular inositol trisphosphate concentration” (priority 1996, dated 2000).

Structures are written as SMILES.

Series [1] concerns bradykinin-stimulated phosphoinositide signalling in PC12 cells. As to the kind of experiment: Phosphoinositide hydrolysis assay (InsP3 production) in PC12 cells. The series is classed as cell-based, rat. The following applies: for sensitivity of PC12 cells to bradykinin: at relatively moderate levels. The text has this:
PC12 cells, from a rat adrenal pheochromocytoma cell line, were used as a model of neurons from the peripheral nervous system. These cells were obtained from a common laboratory cell culture stock and grown in plastic culture flasks in Dulbecco's modified Eagle's medium (DMEM) supplemented with 5% heat-inactivated horse serum and 10% heat-inactivated fetal calf serum (PC12 cells are also available from the American Type Culture Collection under the Accession number CRL 1721). The cells were grown at 37° C. in 5% CO2 in air until a confluent monolayer formed. The cells were dispersed into 24-well plastic tissue culture plates at a density of 10^5 cells per well and used for the phosphoinositide hydrolysis assays (as described in EXAMPLE 2).
(§1) Receptor-stimulated and basal unstimulated hydrolysis of phosphoinositides was measured by the following procedure. In order to label the cellular phosphoinositides metabolically, the primary cultures of chick cortical neurons (described in Example 1) were incubated overnight with 0.5 ml Dulbecco's modified Eagle's medium containing 1 μCi [^3 H]myo-inositol per well. The cells were then washed twice with 1 ml Dulbecco's phosphate-buffered saline (PBS) and 0.5 ml of PBS containing 4.5 g/L glucose was added. Sphingosine, psychosine, lysosulphatide, or lysosphingomyelin, prepared as the hydrochloride salt dissolved in water, were then added to produce the desired extracellular concentration in specific wells, and the 24-well plates were swirled gently on a rotary shaker for 1 hr at 23° C. The cells were then washed twice with 1 ml PBS, and pre-incubated for 15 minutes at 37° C. with 0.5 ml PBS containing 10 mM LiCl and the compound to be tested was added. After 30 minutes, the experiment was terminated by adding 1 ml of ice-cold methanol to each well and transferring the material in each well to polypropylene tubes that contained 0.4 ml water and 1 ml chloroform. The tubes were vortexed thoroughly, then centrifuged at 500×g for 5 minutes to separate the aqueous and chloroform phases. For each sample, a 1.5-ml aliquot of the upper (aqueous) phase was applied to a small column containing BioRad AG1X8 resin (formate form). Free [^3 H]inositol and [^3 H]glycerophosphoinositol were washed through the column with 5 ml of a solution containing 5 mM sodium borate and 60 mM sodium formate. The total phosphorylated [^3 H] inositol fraction was eluted from the column for radiometric scintillation spectrometry analysis with 3 ml 1.0 M ammonium formate/0.1 M formic acid;
(§2) In addition, a 0.5 ml aliquot of the lower (chloroform) phase of each sample was analyzed radiometrically by scintillation spectrometry in order to determine the quantity of lipid-bound [^3 H]myo-inositol. Estimation of phosphoinositide hydrolysis by phospholipase C is based upon the quantity of [^3 H]inositol phosphates produced, and is expressed as the percentage of the latter relative to total free and componential [^3 H]inositol (dpm ammonium formate+dpm chloroform fractions).
PC12 cells display a strong phospholipase C-linked metabotropic receptor response to bradykinin, an effective pain producing agonist.
The degree of InsP3 inhibition is a function of the log of the psychosine concentration for a fixed time of exposure (FIG. 4). Exposing PC12 cells to 50 μM exogenous psychosine for 30 minutes was sufficient to reduce a metabotropic response to 10 μM bradykinin to half maximum.

The subject of series [2] is InsP3 signalling in primary chick cortical neurons. As to the kind of experiment: Phosphoinositide hydrolysis assay (InsP3 signalling) in cultured primary cortical neurons. The series is classed as cell-based. To be noted: for inhibitory effect on InsP3 enhancement caused by sphingosine or metabotropic glutamate receptor agonists: cortical neurons. The protocol: Primary cultures of neurons were prepared from the telencephalon of white Leghorn chick embryos on the eighth day of their development (Rosenberg et al., J.Biol. Chem. 267:10601-10612, 1992). The neurons were seeded in 24-well plastic tissue culture plates that had been coated with L-polylysine. The density of the neurons was 10^5 cells per well, and they were cultured in Dulbecco's modified Eagle's medium/Ham's high glucose F-12 medium (1:1, vol:vol) containing 500 ng/L sodium selenite, 500 μg/L transferrin, and 165 pmole/L EGF. The cultures were maintained at 37° C. under 5% CO2 in air for 4 days, by which time the cells had differentiated into neurite-bearing cortical granulocytic neurons. These cultures of mature embryonic neurons were used for phosphoinositide hydrolysis assays (as described in Example 2).
as §1, with “and the 24-well plates were swirled gently on a rotary shaker for 1 hr at 23° C.” left out, “After 30 minutes, the experiment was terminated by adding 1 ml of ice-cold methanol to each well and transferring the material in each well to polypropylene tubes that contained 0.4 ml water and 1 ml chloroform.” left out
as §2
Cultured primary chick cortical neurons that were prelabeled with [^3 H]myo-inositol were examined for enhanced InsP3 signalling in response to various agonists including glutamate, aspartate, and the metabotropic […] receptor agonists ibotenate and quisqualate.

The test system of the next series is astrocytes. To be noted: cited from earlier work.

Regarding `CCCCCCCCCCCCC/C=C/[C@@H](O)[C@@H](N)CO[C@@H]1O[C@H](CO)[C@H](O)[C@H](O)[C@H]1O` [psychosine, lysocerebroside], the InsP3 production entry in series [1] (PC12 cells) is “strongly inhibit”. Besides, the IC50 in series [1] (PC12 cells, 30 minutes exposure, 10 μM bradykinin, read-out: exogenous concentration reducing metabotropic response to bradykinin to half maximum) came to 50 µM. For the same compound, the “sensitivity of PC12 cells to bradykinin” value in series [1] is “can entirely block”. For the same compound, the “inhibitory effect on InsP3 enhancement caused by sphingosine or metabotropic glutamate receptor agonists” value in series [2] is listed as “blocked this enhancement”. The “InsP3 production in astrocytes” value in the series on astrocytes is recorded as “inhibited”.

Regarding `CCCCCCCCCCCCC/C=C/[C@@H](O)[C@@H](N)CO` [sphingosine], the “basal, unstimulated level of InsP3 production” value in series [1] (PC12 cells) was “tonically upregulated”. The “basal, unstimulated InsP3 level in cortical neurons” value in series [2] was “tonically enhanced”. Further, the “InsP3 production in astrocytes” value in the series with astrocytes is on record as “enhanced”.

In the case of `N[C@@H](Cn1oc(=O)[nH]c1=O)C(=O)O` [Quisqualate, quisqualate], the “Ins-P-n, modulator Lsm:Sph” value in series [2] (20 μM Lysosphingomyelin + 20 μM Sphingosine, then 100 μM agonist 20 min, normalized to control = 1.00) is on record as 2.25 ± 0.15. For the same compound, the “Ins-P-n, modulator Psy:Sph” value in series [2] (20 μM Psychosine + 20 μM Sphingosine, then 100 μM agonist 20 min, normalized to control = 1.00) came out at 3.30 ± 0.25. Also, the fold induction at 100 µM in series [2] (Gallus gallus, Cortical neurone, 20 min, read-out: Ins-P-n (agonist alone)) was 3 ± 0.05.

On to `CCCCCCCCCCCCC/C=C/[C@@H](O)[C@@H](N)COP(=O)([O-])OCC[N+](C)(C)C` [lysosphingomyelin, sphingosyl phosphoryicholine], for which the InsP3 production entry in series [1] (PC12 cells) is listed as “strongly inhibit”. In addition, the “sensitivity of PC12 cells to bradykinin” value in series [1] is on record as “can entirely block”. For the same compound, in series [2], the “inhibitory effect on InsP3 enhancement caused by sphingosine or metabotropic glutamate receptor agonists” value is given as “blocked this enhancement”.
